Data as given in article PMC11001709, “Anti-toxoplasma activity and DNA-binding of copper(II) and zinc(II) coordination compounds with 5-nitroimidazole-based ligands” (Journal of Biological Inorganic Chemistry, 2023).

Test system: ct-DNA
Experiment: UV-Vis absorption titration with ct-DNA (Kb)
Assay type: binding, calf
Conditions: band at 320 nm, cacodylate/NaCl buffer pH 7.25, 1 h
Experimental: For the UV–Vis, fluorescence and circular dichroism assays the concentration of ct-DNA was determined on a Varian Cary 100 Scan spectrophotometer from the absorption at 260 nm and the corresponding molar absorptivity of 6600 M^−1 cm^−1 (nucleobase concentration). The stock solutions of the coordination compounds and the free ligands were prepared in cacodylate/NaCl buffer (1 mM cacodylic acid and 20 mM sodium chloride) at pH 7.25. The final samples contained a DMSO concentration of 0.2%.
Absorption titration experiments were carried out by adding increasing concentrations of ct-DNA (0–25 µM) to 10 µM of the compounds in a final volume of 2 mL. The samples were incubated for 1 h at 37 °C, and spectra were collected on a Varian Cary 100 Scan spectrophotometer. For these assays the charge-transfer band of the compounds was followed at 320 nm. The intrinsic binding constant (Kb) was determined from the titration data using Eq. 2:2 DNA/εα-εf=DNA/ε0-εf+1/Kbε0-εf where εa, ε0 and εf are respectively, the molar extinction coefficients of […].

Cc1ncc([N+](=O)[O-])n1CCCl.Cc1ncc([N+](=O)[O-])n1CCCl.[Br][Cu][Br] [[Cu(cenz)2Br2]]
Kb: 450000 M⁻¹
